Values quoted from earlier work, collected in US20090117102A1, “Methods and compositions using CD3 agonists” (priority 2004, published 2009).

What was measured:
T cell [1] = conditions: Van Wauve, J. Immunol. 124 (1980)
T cell [2] = conditions: Wong Transplantation 50 (1990)

OKT3: murine monoclonal antibody specific for the human CD3 antigen, first monoclonal antibody approved by the FDA
T cell mitogen activity (T cell [1]): potent T cell mitogen
T cell killer activity (T cell [2]): potent T cell killer
